Here are results for 2 compounds from paper PMC6773697, “Antileukemic activity of novel adenosine derivatives” (Scientific Reports, 2019).

For one data set, the system named is γH2AX in MOLT-4 cells. The data set can be described thus: H2AX (phospho S139) In-Cell ELISA, MOLT-4. The data set is classed as cell-based, human. Conditions: MOLT-4, 48 h, versus CLA. The protocol: The level H2AX protein phosphorylated Ser139 was measured in tested leukemia cells by using of In-Cell ELISA, ICE assay kit. The cells were seeded on 96-well plates (100 × 10^3/well) and 48 h later, incubated with the appropriate compounds. In some experimental variants, cells were preincubated for 1 h with VE-821 (10 µM). The cells were fixed by adding a final concentration of 4% paraformaldehyde solution (10 min, room temperature). After 2 h of Block Solution incubation, cells were treated with a highly specific antibody. A rabbit monoclonal antibody specific to H2AX (phospho S139) was used (at 1:100, 2 h incubation). Next Secondary Antibody Solution (at 1:1000) were added to the cells. The measurements were obtained on a fluorescence plate reader at an excitation wavelength of 680 nm and emission at 694 nm. The cells were PBS washed and 100 µL of Janus Green Stain was added to each well of the plate (5 min., room temperature). The data were collected at excitation wavelength of 750 nm and emission at 800 nm channel (Fluoroskan Cary Eclipse). Antibody signal intensity was normalized to the total amount using Janus Green cell-stain.

The next data set deals with HMEC-1 cells. Nature of the data set: XTT cytotoxicity assay, HMEC-1 (normal dermal endothelium). It is filed as cell-based. Conditions: Homo sapiens, 48 h incubation, none in the picture. The protocol:
(§1) The cytotoxic activity test with XTT (sodium 3′-[1-(phenylaminocarbonyl)- 3,4-tetrazolium]-bis (4-methoxy-6-nitro) benzene sulfonic acid hydrate) is a colorimetric method for determining the parameters associated with cell viability. The cytotoxicity in HL-60, THP-1, MOLT-4, and HMEC-1 cells was measured by the XTT assay. XTT is reduced to formazan by the mitochondrial respiratory chain oxidoreductase, which is active only in living cells. The formed crystals of formazan are dissolved directly in the medium. The amount of product is proportional to the number of live cells.
(§2) The IC50 parameter was determined by dividing the mean absorbance values of the drug-treated samples by those of control cells and defined as the drug concentration causing a 50% reduction of cell viability relative to the control. It was calculated using the “Ed50v10(1)” computer application. Cells were plated in 96-well plates at a density of 15 × 10^3 cells in 100 μL culture medium. Drugs were then added at a concentration range of 10 nM–10,000 nM to obtain a final volume of the mixture of 150 μL. Some cells were preincubated with an ATR kinase inhibitor (VE-821) for 1 h at 37 °C before adding the tested compounds. In this case drugs were added at a concentration range of 10 nM–300 nM. For the XTT assay, after 48 h of incubation, the plates were centrifuged at 1,500 rpm for 10 min at 4 °C, the culture medium was removed, and the cells were suspended in 100 mm^3 of HBSS (Hank’s Buffered Salt Solution) containing 140 mM NaCl, 5 mM KCl, 0.8 mM MgCl2, 1.8 mM CaCl2, 1 mM Na2HPO4, 10 mM HEPES (N- (2-hydroxyethyl) -piperazine-N′- (2-ethanesulfonic acid), and 1% glucose at pH 7.4. Then, 50 μL of XTT solution (in PBS) was added to a final concentration of […]. In addition, PMS (phenazine methosulphate) - methyl dibenzo-N-methylpyrazine sulphate (0.383 mg/cm^3) was used, which was combined with XTT solution at a ratio of 1:50. After 4 h of incubation with XTT, absorbance was measured at a wavelength λ = 450 nm and reference wavelength λ = 690 nm with a microplate reader (BioTek, Winooski, VT, USA).

The test system of a further data set is THP-1 cells. Nature of the data set: XTT cytotoxicity assay, THP-1. It is filed as cell-based, human. Conditions: for IC50: Homo sapiens, THP-1, XTT, 48 h incubation, none in the picture; for sensitivity of cells to the compound: THP-1, XTT. The protocol:
as §1, §2

A further data set concerns dCK in THP-1 cells. Nature of the data set: Deoxycytidine kinase activity, THP-1. The data set is classed as cell-based, human. Conditions: THP-1, 24 h incubation. The protocol: Deoxycytidine kinase activity was measured in accordance with the manufacturer’s protocol. The cells, at final concentration were plated at 1 × 10^6 cells per 24-well plates and cultured with the tested compounds for 24 h. Some cells were preincubated with an ATR kinase inhibitor (VE-821) for 1 h at 37 °C before adding the tested compounds. After drug treatment, the cells were washed with PBS and resuspended in an ice-cold cytosol extraction buffer containing 1 mM phenylmethylsulfonyl fluoride (PMSF) and a protease inhibitor cocktail. The cell lysate was centrifuged at 10,000 × g for 30 min at 4 °C. The protein concentration was determined using the Bradford method. The supernatant (cytosolic fraction) was collected and stored at −80 °C. The clarified cytoplasm extracts, dCK standards, and blank control were added to the appropriate microtiter plate wells with a biotin-conjugated polyclonal antibody prepared specifically for dCK. Avidin conjugated to horseradish peroxidase (HRP) was added to each microplate well and incubated. Then, a TMB substrate solution was added to the plate. […] The enzyme-substrate reaction was terminated by addition of a sulfuric acid solution. The color change was measured spectrophotometrically at a wavelength of 450 nm using a microplate reader (BioTek).

The test system of the next data set is HL-60 cells. The data set can be described thus: XTT cytotoxicity assay, HL-60. It is filed as cell-based. The conditions noted are these: Homo sapiens, 48 h incubation, none in the picture. The procedure: as §1, §2
Data set [1] deals with leukemic cells (HL-60, MOLT-4, THP-1). The data set can be described thus: XTT cytotoxicity assay, leukemic cells overall. Conditions: XTT, leukemic cell lines. It is filed as cell-based, human. The procedure: as §1, §2
In general terms: Formazan colour is commonly taken as a measure of viable cells.

The next data set deals with MOLT-4 cells. The data set can be described thus: XTT cytotoxicity assay, MOLT-4. The conditions noted are these: for IC50: Homo sapiens, MOLT-4, XTT, 48 h incubation, none in the picture. It is filed as cell-based, human. The procedure: as §1, §2

Broadly, the IC50 is the concentration that gives 50% inhibition. A lower IC50 goes with greater potency. With `OC[C@H]1O[C@@H](n2cnc3c(N=CN4CCCC4)nc(Cl)nc32)C[C@@H]1O` [CLA-FPIR, [6-deamino-6-(N′, N′-l′, 4′-tetramethyleneformamidino)] cladribine], the “effectiveness in inducing dsDNA (γH2AX) relative to CLA” value in the data set with γH2AX in MOLT-4 cells is reported as “about 2 fold”. The IC50 turned out to be 231 nM in the data set with HMEC-1 cells, 36 nM in the data set on THP-1 cells, 135 nM in the data set on HL-60 cells and 127 nM with MOLT-4 cells. Besides, the “sensitivity of cells to the compound” value in the data set with THP-1 cells is “highest sensitivity”. Also, the dCK activity entry with dCK in THP-1 cells is reported as “highest dCK activity”. Besides, in data set [1], the “cytotoxicity (in words)” value was “high cytotoxic activity”.
Regarding `OC[C@H]1O[C@@H](n2cnc3c(N=CN4CCOCC4)nc(Cl)nc32)C[C@@H]1O` [CLA-FMOR, [6-deamino-6-(N′, N′-3′-oxa-1′, 5′-pentamethyleneformamidine)] cladribine], the “effectiveness in inducing dsDNA (γH2AX) relative to CLA” value with γH2AX in MOLT-4 cells is “about 2 fold”. The IC50 was determined as 287 nM in the data set on HMEC-1 cells, 41 nM in the data set with THP-1 cells, 122 nM in the data set on HL-60 cells and 73 nM with MOLT-4 cells. Moreover, in the data set with THP-1 cells, the “sensitivity of cells to the compound” value was “highest sensitivity”. Also, the dCK activity entry with dCK in THP-1 cells is “highest dCK activity”. Moreover, the “cytotoxicity (in words)” value in data set [1] was “high cytotoxic activity”. Besides, in the data set on MOLT-4 cells (MOLT-4, XTT), the “cytotoxic potency compared with CLA” value is given as “more potent than CLA”.
